# Test results from article PMC11394167, “Purification and Identification of Novel Dipeptidyl Peptidase IV Inhibitory Peptides Derived from Bighead Carp (Hypophthalmichthys nobilis)” (Foods, 2024).
# Like-named read-outs stand apart in the source and are kept apart here. Where a SMILES comes first, the peptide text is derived from it.
# Assays:
# [1] = molecular target: T1, DPP-IV (Homo sapiens, UniProt P27487); settings: cited from earlier work
# T1 construct: purchased Abnova KA1311
# Description: Diabetes is a chronic disease marked by high blood sugar levels and disruptions in fat and protein metabolism due to insulin resistance and deficiency. It is categorized into three types: type 1, type 2, and gestational diabetes. As reported by the International Diabetes Federation (IDF), approximately 537 million adults (aged 20–79 years) were living with diabetes in 2021, a number expected to rise to 700 million by 2045 [7]. Type 2 diabetes mellitus (T2DM) constitutes about 90% of these cases. Without treatment, T2DM can lead to severe complications such as coronary issues, retinopat ... || The results of mass spectrometry identification guided the screening of peptide sequences based on certain criteria. […] In the current landscape of research aiming to identify DPP-IV inhi ...
# [2] = molecular target: T1, DPP-IV; assay: DPP-IV inhibitor screening assay (KA1311 kit, Gly-Pro-AMC); type: biochemical; settings: synthetic peptides; 37 °C, 30 min; Gly-Pro-AMC substrate; fluorescence ex 350 nm / em 460 nm; mean ± standard deviation (n = 3); read-out: IC50 (DPP-IV inhibition)
# Protocol: The DPP-IV inhibition rate and the corresponding IC50 of each component were determined using the DPP-IV inhibitor screening assay kit (KA1311, Abnova, Taipei, Taiwan, China). For each component, extracts were mixed with buffer solution at various concentrations (1 mg/mL, 0.1 mg/mL, 0.05 mg/mL, 0.01 mg/mL), DPP-IV, and the substrate (Gly-Pro-AMC solution) in 96-well plates. The reaction was conducted at the normal human body temperature of 37 °C for 30 min. Free AMC (7-amino-4-methylcoumarin) was quantified using a multifunctional fluorescent zymography assay, with excitation light at 350 nm and emission light at 460 nm, and expressed as fluorescence intensity. The positive control utilized was 1 μg/mL of […]. A standard curve for all inhibition rates was plotted, and the maximum half inhibitory concentration (IC50) value of each peptide was determined using GraphPad Prism 9.5.1. DPP-IV inhibition (%) = {(F initial activity − F sample)/F initial activity} × 100%(2)
# The DPP-IV inhibitory activity assay was performed in three parallel groups, and IC50 data were expressed as the mean ± standard deviation (S.D.). Data were analyzed using SPSS 20.0 software (SPSS Inc., Chicago, IL, USA) for unifactorial and bifactorial analyses, and the significance of the data was indicated by p < 0.05.
# [3] = molecular target: T1, DPP-IV; assay: DPP-IV inhibition pattern (Lineweaver–Burk plots); type: biochemical; settings: substrate 20, 15, 10, 5, 1 μM, peptide greater than IC50, less than IC50, and 0
# Protocol: The pattern of DPP4 inhibition of synthetic peptides was further analyzed using Lineweaver–Burk plots. Images were plotted at different concentrations of substrates (20, 15, 10, 5, 1 μM) and peptide solution (concentration was greater than IC50, less than IC50, and 0) with 1/[S] as the X-value and 1/V as the Y-value. The mode of inhibition of DPP-IV by the synthetic peptide was determined based on the intercept of the Lineweaver–Burk curve.
# [4] = side effects such as nausea; cited from earlier work
# Description: Diabetes is a chronic disease marked by high blood sugar levels and disruptions in fat and protein metabolism due to insulin resistance and deficiency. It is categorized into three types: type 1, type 2, and gestational diabetes. As reported by the International Diabetes Federation (IDF), approximately 537 million adults (aged 20–79 years) were living with diabetes in 2021, a number expected to rise to 700 million by 2045 [7]. Type 2 diabetes mellitus (T2DM) constitutes about 90% of these cases. Without treatment, T2DM can lead to severe complications such as coronary issues, retinopat ...
# T1 sequence (P27487 whole entry): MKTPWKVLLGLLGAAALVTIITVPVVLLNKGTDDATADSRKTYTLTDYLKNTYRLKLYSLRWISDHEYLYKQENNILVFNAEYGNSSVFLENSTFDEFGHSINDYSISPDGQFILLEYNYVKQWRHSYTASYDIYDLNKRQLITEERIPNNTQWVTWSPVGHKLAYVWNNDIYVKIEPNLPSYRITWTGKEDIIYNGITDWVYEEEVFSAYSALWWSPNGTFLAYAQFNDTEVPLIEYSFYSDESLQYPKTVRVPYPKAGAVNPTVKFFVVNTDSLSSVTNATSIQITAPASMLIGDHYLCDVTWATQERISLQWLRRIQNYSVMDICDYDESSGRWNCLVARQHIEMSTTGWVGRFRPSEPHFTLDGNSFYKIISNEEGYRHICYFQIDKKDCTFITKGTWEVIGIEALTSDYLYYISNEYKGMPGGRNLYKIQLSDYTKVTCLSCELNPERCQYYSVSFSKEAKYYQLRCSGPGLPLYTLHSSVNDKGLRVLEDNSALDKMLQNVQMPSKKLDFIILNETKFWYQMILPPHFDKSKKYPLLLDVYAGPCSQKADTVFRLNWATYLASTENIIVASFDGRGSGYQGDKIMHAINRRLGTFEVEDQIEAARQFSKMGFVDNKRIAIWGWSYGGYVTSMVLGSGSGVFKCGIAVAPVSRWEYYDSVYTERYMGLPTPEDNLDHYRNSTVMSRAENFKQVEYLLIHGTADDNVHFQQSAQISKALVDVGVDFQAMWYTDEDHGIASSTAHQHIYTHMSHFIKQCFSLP
compound,measurement,setting,value
YYGYTGAFR [previously reported peptide from Atlantic salmon],IC50,[1]; from Atlantic salmon,1100 µM
CC(C)[C@H](N)C(=O)N[C@@H](Cc1ccc(O)cc1)C(=O)N1CCC[C@H]1C(=O)O [VYP] (H-Val-Tyr-Pro-OH),IC50,[2],0.399 ± 0.0474 µM
WGDEHIPGSPYH [previously reported peptide from silver carp],IC50,[1]; from silver carp,350 µM
CC(C)[C@H](NC(=O)[C@@H](N)Cc1ccccc1)C(=O)N[C@@H](C)C(=O)O [FVA] (H-Phe-Val-Ala-OH),IC50,[2],0.402 ± 0.00528 µM
same,effect on Km,[3],increased Km
O=C(CNC(=O)[C@@H]1CCCN1C(=O)[C@@H]1CCCN1)N[C@@H](Cc1ccccc1)C(=O)O [PPGF] (H-PPGF-OH),IC50,[2],0.00463 ± 0.00156 µM
CN(C)C(=N)N=C(N)N [Metformin],patients suffering from side effects,[4],around 30%
CC(C)C[C@H](NC(=O)CNC(=O)[C@@H]1CCCN1)C(=O)N[C@H](C(=O)NCC(=O)O)C(C)C [PGLVG] (H-PGLVG-OH),IC50,[2],0.11 ± 0.0431 µM
same,effect on Km,[3],Km is increased
GPAG [peptide (300.4 Da) from pig skin gelatin hydrolysate],IC50,[1]; peptides from pig skin gelatin hydrolysate,41.9 µM
IPSK,DPP-IV inhibitory effect,[1]; peptides from milk proteins,DPP-IV inhibitory effects
YPFPGP [previously reported peptide extracted from milk],IC50,[1]; extracted from milk,749 µM
